The values that follow are results of earlier work, collected in patent US6495521B2, “Combination therapy method for treating chronic hepatitis B” (SciClone Pharmaceuticals, Inc., priority 1993, dated 2002).

One series concerns hepatitis B virus. The conditions noted are these: patients with chronic active hepatitis B who received the peptide.
The conditions of series [1]: individuals suffering from chronic active hepatitis B.

“Ac-Ser-Asp-Ala-Ala-Val-Asp-Thr-Ser-Ser-Glu- Ile-Thr-Thr-Lys-Asp-Leu-Lys-Glu-Lys-Lys-Glu- Val-Val-Glu-Glu-Ala-Glu-Asn-OH (Ac-SDAAVDTSSEITTKDLKEKKEVVEEAEN-OH) [thymosin alpha-1, 28 amino acid peptide originally isolated from calf thymus thymosin fraction 5]”: the “patients who cleared hepatitis B virus DNA from serum and persistently tested negative for serum HBV DNA after treatment was terminated” value with hepatitis B virus was 75%. In series [1], the lymphocyte counts result is reported as “increases in lymphocyte counts” and the production of gamma-interferon entry was “enhance production of gamma-interferon”.
